The record followed here is patent US20090325891A1, “Cartilage regeneration-promoting agent” (EISAI FOOD & CHEMICAL CO., LTD., priority 2006, published 2009).

In experiment [1] the test system is lateral vastus muscles and femoral biceps muscles. As to the kind of experiment: Muscle weight ratio (injured side vs opposite side) in rabbit articular cartilage injury model. It counts as in vivo. The note with it: for Muscle weight ratio Femoral biceps muscle, Mean / Muscle weight ratio Lateral vastus muscle, Mean: group mean, 6 rabbits; for Muscle weight ratio Femoral biceps muscle / Muscle weight ratio Lateral vastus muscle: individual rabbits, injured side vs opposite side. On the procedure: The rabbit articular cartilage injury model was prepared based on the method of Hashida et. al. (See, Macromolecular Bioscience, 3, (2003) 596-603), and Tamai et. al. (See, Carbohydrate Polymers, 48, (2002) 369-378, and Carbohydrate Polymers, 54, (2003) 251-262).
Initially, each animal was anesthetized by injecting pentobarbital sodium (40 mg/kg) intraperitoneally. Next, hairs at the knee joint of the left hind limb of the animal were clipped and disinfected with 0.5% chlorhexidine gluconate solution and 70% ethanol solution. Then, an incision was made on the skin on the lateral portion of the knee joint from the central part of the femur toward the tibial tuberosity. The articular capsule was exposed and incised. Further, the knee joint was exposed completely by dislocating the patella toward the medial side. Three holes of 2 mm size in diameter and 4 mm in depth were made by using a handdrill one at the medial trochlear ridge and two at the trochlear sulcus of the femur. The incised portion was washed with sterile saline solution and the articular capsule, and at the same time, the subcutaneous tissues and the skin were sutured with a synthetic absorbent thread and with nylon thread, respectively. During one week after the operation, the sutured portion of the skin was disinfected by povidone-iodine once a day and 10 mg/kg of oxytetracycline hydrochloride was subcutaneously administered twice a day.
After the formation of injury to articular cartilage, for the HT group, the product containing 20% by mass of hydroxytyrosol obtained in Production Example 1 was dissolved in tap water and administered using a water bottle at a rate of 500 mg/kg (100 mg/kg of hydroxytyrosol) per day for 21 days. After making sure that all of the water containing the drug was taken in, rabbits were fed with sterile tap water. The control was fed with sterile tap water ad libitum.
For each animal, left and right lateral vastus muscles and femoral biceps muscles were collected, and weights were measured. The muscle weight ratio was calculated by comparing the side, in which cartilage injury was made, with the opposite side, and Student's t-test was performed between the control group and the HT group.
In the same way as in Example 1, the cartilage regeneration-promoting effects were investigated with respect to hydroxytyrosol (100 mg/kg per day, HT group) and with respect to glucosamine hydrochloride (800 mg/kg per day, hereinafter, GAH group) for comparison. The control group was set in the same way as in Example 1.

For experiment [2], the system named is Rabbit chondrocytes. As to the kind of experiment: Glycosaminoglycan production in rabbit chondrocytes. It is filed as cell-based. To be noted: per number of viable cells; 12 days culture; hydroxytyrosol 100 ng/ml, glucosamine hydrochloride 4 μg/ml. The protocol:
The promoting effects of hydroxytyrosol and glucosamine hydrochloride on the production of glycosaminoglycan and on the production of hyaluronic acid in chondrocytes were evaluated. Rabbit chondrocytes (rabbit articular chondrocytes in primary culture, F-8, Cell Garage Co., Ltd.) were washed with phosphate buffered saline solution, and then cells were released with 0.05% trypsin-EDTA solution. The released chondrocytes were cultured in DMEM medium containing 10% FBS, 100 U/ml penicillin, 100 μg/ml streptomycin, 100 μM trisodium ascorbyl-2-phosphate (available from SIGMA-ALDRICH Corp.), and 25 mM HEPES (available from Invitrogen Corporation) at 37° C. in a humidified condition with 5% CO2. […] For each group after 12 days culture, the number of viable cells was determined by WST assay. The percentage of the amount of glycosaminoglycan or hyaluronic acid produced by each experimental group, relative to the control group, was calculated according to the following formula: ((amount produced by each experimental group/number of cells of each experimental group)×100)/(amount produced by the control group/number of cells of the control group). The amount of glycosaminoglycan produced by the above-mentioned cultured cells was measured using a measurement kit (acid mucopolysaccharide quantification kit, available from Cell Garage Co., Ltd.).

For experiment [3], the system named is Rabbit chondrocytes. The experiment in a line: Hyaluronic acid production in rabbit chondrocytes. It is filed as cell-based. To be noted: culture supernatant, per number of viable cells; 12 days culture; hydroxytyrosol 100 ng/ml, glucosamine hydrochloride 4 μg/ml. The protocol: The promoting effects of hydroxytyrosol and glucosamine hydrochloride on the production of glycosaminoglycan and on the production of hyaluronic acid in chondrocytes were evaluated. Rabbit chondrocytes (rabbit articular chondrocytes in primary culture, F-8, Cell Garage Co., Ltd.) were washed with phosphate buffered saline solution, and then cells were released with 0.05% trypsin-EDTA solution. The released chondrocytes were cultured in DMEM medium containing 10% FBS, 100 U/ml penicillin, 100 μg/ml streptomycin, 100 μM trisodium ascorbyl-2-phosphate (available from SIGMA-ALDRICH Corp.), and 25 mM HEPES (available from Invitrogen Corporation) at 37° C. in a humidified condition with 5% CO2. […] For each group after 12 days culture, the number of viable cells was determined by WST assay. The percentage of the amount of glycosaminoglycan or hyaluronic acid produced by each experimental group, relative to the control group, was calculated according to the following formula: ((amount produced by each experimental group/number of cells of each experimental group)×100)/(amount produced by the control group/number of cells of the control group). The supernatant of cultured cells of each group was collected, and the amount of hyaluronic acid produced was measured using a measurement kit (hyaluronic acid measurement kit, available from Seikagaku Corporation).

Where [4] appears, read: Example 2, hydrochloride, female rabbits.
Where [5] appears, read: Example 2, hydrochloride, male rabbits.

Several values for one entry are separate records, joined by “and”; a condition that tells them apart may be missing. Identical values can stand only once.

`Cl.N[C@H]1C(O)O[C@H](CO)[C@@H](O)[C@@H]1O` (stereo partly shown) [GAH group, glucosamine hydrochloride, reference compound]: in experiment [1] (Example 2), the “muscle weight of the femoral biceps muscle (in words)” value is “marked decrease” and the “muscle weight of the lateral vastus muscle (in words)” value is reported as “slight decrease”. Also, the “Muscle weight ratio Femoral biceps muscle, Mean” value in experiment [1] (Example 2, control 83.80) is 83.62%. Further, the “Muscle weight ratio Lateral vastus muscle, Mean” value in experiment [1] (Example 2, control 91.91) was 92.03%. For the same molecule, in experiment [1] (setting [4]), the “Muscle weight ratio Femoral biceps muscle” value is 78.13% and 86.21% and 65.10%; the “Muscle weight ratio Lateral vastus muscle” value is 82.24% and 96.46% and 90.85%. Further, in experiment [1] (setting [5]), the “Muscle weight ratio Femoral biceps muscle” value is 92.37% and 86.12% and 93.81%; the “Muscle weight ratio Lateral vastus muscle” value was 98.02% and 89.59% and 94.99%. In addition, the “amount of glycosaminoglycan produced compared to the control group” value in experiment [2] is 147.0%. Further, in experiment [3], the “amount of hyaluronic acid produced compared to the control group” value stood at 127.4%.
On to `OCCc1ccc(O)c(O)c1` [HT group, 2-(3,4-Dihydroxyphenyl)ethanol], for which the “muscle weight of the femoral biceps muscle (in words)” value in experiment [1] (Example 1) and in experiment [1] (Example 2) was “little decrease” throughout. Further, the “muscle weight of the lateral vastus muscle (in words)” value was “decreased slightly” in experiment [1] (Example 1) and “little decrease” in experiment [1] (Example 2). Also, the “Muscle weight ratio Lateral vastus muscle, Mean” value in experiment [1] (Example 1, control 88.84) is 95.93%; in experiment [1] (Example 2, control 91.91), 98.48%. Moreover, the “Muscle weight ratio Femoral biceps muscle, Mean” value came out at 100.08% in experiment [1] (Example 1, control 88.99) and 100.59% in experiment [1] (Example 2, control 83.80). The “Muscle weight ratio Femoral biceps muscle” value in experiment [1] (Example 1, female rabbits) was 100.18% and 98.45% and 93.46%; in experiment [1] (Example 1, male rabbits) it was 94.80% and 106.36% and 107.22%; in experiment [1] (Example 2, female rabbits), 90.91% and 111.86% and 93.42%; in experiment [1] (Example 2, male rabbits) it was 101.37% and 104.66% and 101.31%. The “Muscle weight ratio Lateral vastus muscle” value was 105.30% and 96.92% and 80.89% in experiment [1] (Example 1, female rabbits); 93.29% and 95.10% and 104.10% in experiment [1] (Example 1, male rabbits); 94.98% and 98.56% and 92.43% in experiment [1] (Example 2, female rabbits); 84.93% and 111.10% and 108.90% in experiment [1] (Example 2, male rabbits). The “amount of glycosaminoglycan produced compared to the control group” value in experiment [2] was 119.8%. Also, the “amount of hyaluronic acid produced compared to the control group” value in experiment [3] was determined as 82.9%.
